Patent US20030013660A1, “Dioxolane analogs for improved inter-cellular delivery” (Shire BioChem Inc., priority 2000, published 2003)
Read-outs that look alike come from different tables or passages of the source.

Tests used:
Test in all cases: 3H-TdR incorporation at 72 hr (24 hr drug exposure, wash, 48 hr)
[1] = test system: H-460; format: cell-based, Human; conditions: Homo sapiens, NCI-H460, read-out: IC50 in μM (3H-TdR incorporation at 72 hr) H-460 24 h, H-460 Human Lung Carcinoma, 72 hr assay
Procedure: (§1) Exposition of 24 hr to drug, wash, incubated for another 48 hr (total of 72 hr assay)
(§2) (3H-Thymidine Incorporation Assay)

[2] = test system: MCF-7; format: cell-based, Human; conditions: Homo sapiens, MCF7, read-out: IC50 in μM (3H-TdR incorporation at 72 hr) MCF-7 24 h, MCF-7 Human Breast Carcinoma, 72 hr assay
Procedure: as §1, §2

[3] = test system: SF-268; format: cell-based, Human
Procedure: as §1, §2

[4] = test system: CEM/dCK-; format: cell-based; conditions: for IC50: Homo sapiens, CCRF-CEM, read-out: IC50 in μM (3H-TdR incorporation at 72 hr) CEM/dCK- 24 h, CCRF-CEM deoxycytidine kinase-deficient, 24 h drug exposure, 72 hr assay; for Factor* (Resistance Factor = Ratio of dCK- on Wild-type CCRF-CEM): ratio of IC50 CEM/dCK- to IC50 CCRF-CEM
Procedure: as §1, §2

[5] = test system: CCRF-CEM; format: cell-based; conditions: Homo sapiens, CCRF-CEM, read-out: IC50 in μM (3H-TdR incorporation at 72 hr) CCRF-CEM 24 h, CCRF-CEM T-cell Leukemia, 72 hr assay
Procedure: as §1, §2

[6] = Homo sapiens, SF-268, read-out: IC50 in μM (3H-TdR incorporation at 72 hr) SF-268 24 h, SF-268 Human Central Nervous System Tumor, 24 h drug exposure, 72 hr assay

`COC(OC)(OC)OC[C@H]1OC[C@@H](n2ccc(N)nc2=O)O1` [Compound 177, 4-AMINO-1-(2- TRIMETHOXYMETHOXYMETHYL -[1,3]DIOXOLAN-4-YL)- 1H-PYRIMIDIN-2-ONE] gave an IC50 [1] of 0.19 µM, an IC50 [2] of 0.22 µM and an IC50 [3, 6] of 0.92 µM. For the same molecule, the IC50 [4] was greater than 100 µM, the “Factor* (Resistance Factor = Ratio of dCK- on Wild-type CCRF-CEM)” value [4] was greater than 1052 and the IC50 [5] was 0.095 µM.
In the case of `CCOC[C@H]1OC[C@@H](n2ccc(N)nc2=O)O1` [Compound 178, (S,S)-4-AMINO-1-(2′- ETHOXYMETHYL- [1,3]DIOXOLAN-4′-YL)- 1H-PYRIMIDIN-2-ONE], the IC50 [1] is reported as 88 µM, the IC50 [2] is reported as 5.8 µM and the IC50 [3, 6] is reported as 41 µM. For the same molecule, the IC50 [4] was greater than 100 µM, the “Factor* (Resistance Factor = Ratio of dCK- on Wild-type CCRF-CEM)” value [4] was greater than 4 and the IC50 [5] was 25 µM.
Work on `C=CCOC[C@H]1OC[C@@H](n2ccc(N)nc2=O)O1` [Compound 179, (S,S)-1-(2′- ALLYLOXYMETHYL- [1,3]DIOXOLAN-4′-YL)-4- AMINO-1H-PYRIMIDIN-2- ONE] yielded an IC50 [1] of 1.7 µM, an IC50 [2] of 2.8 µM and an IC50 [3, 6] of 0.56 µM. For the same molecule, the IC50 [4] was greater than 100 µM, the “Factor* (Resistance Factor = Ratio of dCK- on Wild-type CCRF-CEM)” value [4] was greater than 42 and the IC50 [5] was 2.4 µM.
`O=C(Nc1ccn([C@@H]2CO[C@H](CO)O2)c(=O)n1)OCc1ccc([N+](=O)[O-])cc1` [Compound 182, [1-(2-HYDROXYMETHYL- [1,3]DIOXOLAN-4-YL)-2- OXO-1,2-DIHYDRO- PYRIMIDIN-4-YL]- CARBAMIC ACID 4-NITRO- BENZYL ESTER] showed an IC50 [1] of 0.13 µM, an IC50 [2] of 0.22 µM and an IC50 [3, 6] of 0.21 µM. For the same molecule, the IC50 [4] was greater than 100 µM, the “Factor* (Resistance Factor = Ratio of dCK- on Wild-type CCRF-CEM)” value [4] was greater than 2100 and the IC50 [5] was 0.047 µM.
`Cl.Nc1ccn([C@@H]2CO[C@H](COC(=O)OCc3ccc([N+](=O)[O-])cc3)O2)c(=O)n1` [Compound 183, CARBONIC ACID 4-(4- AMINO-2-OXO-2H- PYRIMIDIN-1-YL)- [1,3]DIOXOLAN-2- YLMETHYL ESTER 4-NITRO- BENZYL ESTER HYDROCHLORIDE SALT] was tested, and the IC50 [1] was 0.037 µM, the IC50 [2] was 0.038 µM and the IC50 [3, 6] was 0.12 µM. For the same molecule, the IC50 [4] was 45 µM, the “Factor* (Resistance Factor = Ratio of dCK- on Wild-type CCRF-CEM)” value [4] was 2,500 and the IC50 [5] was 0.018 µM.
Work on `Nc1ccn([C@@H]2CO[C@H](COC3(c4ccccc4)OC4OC(COC(=O)c5ccccc5)C(OC(=O)c5ccccc5)C(OC(=O)c5ccccc5)C4O3)O2)c(=O)n1` (stereo partly drawn) [Compound 184, 3,4,6-TRI-O-BENZOYL- 1,2-O-(1-(4-AMINO-2- OXO-2H-PYRIMIDIN-1-YL)- [1,3]DIOXOLAN-2- YLMETHYLOXY)-BENZYL)- □^˜D-GLUCOPYRANOSe] yielded an IC50 [1] of 0.94 µM, an IC50 [2] of 0.92 µM and an IC50 [3, 6] of 1.1 µM. The IC50 [4] was 40 µM, the “Factor* (Resistance Factor = Ratio of dCK- on Wild-type CCRF-CEM)” value [4] was 49 and the IC50 [5] was 0.81 µM.
Molecule `O=c1nc(NS(=O)(=O)c2ccc([N+](=O)[O-])cc2[N+](=O)[O-])ccn1[C@@H]1CO[C@H](CO)O1` [Compound 188, N-[1-(2-HYDROXYMETHYL- [1,3]DIOXOLAN-4-YL)-2- OXO-1,2-DIHYDRO- […]-4-YL]-2,4- DINITRO- BENZENESULFONAMIDE] has an IC50 [1] of 0.097 µM, an IC50 [2] of 3 µM and an IC50 [3] of 2.4 µM. The IC50 [4] was greater than 100 µM and the IC50 [5] was 0.79 µM.
Molecule `CC(C)(C)OC(=O)NCCCCCC(=O)Nc1ccn([C@@H]2CO[C@H](COC(=O)CCCCCNC(=O)OC(C)(C)C)O2)c(=O)n1` [Compound 192, 6-TERT!- BUTOXYCARBONYLAMINO- HEXANOIC ACID 4-[4-(6- TERT- BUTOXYCARBONYLAMINO- HEXANOYLAMINO)-2-OXO- 2H-PYRIMIDIN-1-YL]- [1,3]DIOXOLAN-2-YL METHYL ESTER] has an IC50 [1] of 0.29 µM, an IC50 [2] of 0.0016 µM and an IC50 [3, 6] of 0.4 µM. For the same molecule, the IC50 [4] was 48 µM, the “Factor* (Resistance Factor = Ratio of dCK- on Wild-type CCRF-CEM)” value [4] was 5,714 and the IC50 [5] was 0.0084 µM.
Molecule `CC(C)(C)OC(=O)NCCCCCC(=O)Nc1ccn([C@@H]2CO[C@H](CO)O2)c(=O)n1` [Compound 193, {5-[1-(2-HYDROXYMETHYL- [1,3]DIOXOLAN-4-YL)-2- OXO-1,2-DIHYDRO- PYRIMIDIN-4- YLCARBAMOYL]-PENTYL}- CARBAMIC ACID TERT- BUTYL ESTER] has an IC50 [1] of 0.64 µM, an IC50 [2] of 0.16 µM and an IC50 [3, 6] of 2 µM. The IC50 [4] was greater than 100 µM, the “Factor* (Resistance Factor = Ratio of dCK- on Wild-type CCRF-CEM)” value [4] was greater than 1695 and the IC50 [5] was 0.059 µM.
`CC(C)(C)OC(=O)NCCCCCC(=O)OC[C@H]1OC[C@@H](n2ccc(N)nc2=O)O1` [Compound 194, 6-TERT!- BUTOXYCARBONYLAMINO- HEXANOIC ACID 4-(4- AMINO-2-OXO-2H- PYRIMIDIN-1-YL)- [1,3]DIOXOLAN-2- YLMETHYL ESTER] was tested, and the IC50 [1] was 0.011 µM, the IC50 [2] was 0.004 µM and the IC50 [3, 6] was 0.041 µM. The IC50 [4] was 10 µM, the “Factor* (Resistance Factor = Ratio of dCK- on Wild-type CCRF-CEM)” value [4] was 4167 and the IC50 [5] was 0.0024 µM.
`COc1ccc(C(OC)(OC)OC[C@H]2OC[C@@H](n3ccc(N)nc3=O)O2)cc1` [Compound 195, 4-AMINO-1-{2- [DIMETHOXY-(4-METHOXY- PHENYL)-METHOXYMETHYL]- [1,3]DIOXOLAN-4-YL}- 1#H!-PYRIMIDIN-2-ONE] gave an IC50 [1] of 1.1 µM, an IC50 [2] of 1.9 µM and an IC50 [3, 6] of 1.5 µM. For the same molecule, the IC50 [4] was greater than 100 µM, the “Factor* (Resistance Factor = Ratio of dCK- on Wild-type CCRF-CEM)” value [4] was greater than 1563 and the IC50 [5] was 0.064 µM.
`CCOC(OCC)(OCC)OC[C@H]1OC[C@@H](n2ccc(N)nc2=O)O1` [Compound 199, 4-Amino-1-(2-triethoxymethoxymethyl-[1,3]dioxolan-4-yl)-1H-pyrimidin-2-one] showed an IC50 [1] of 0.033 µM, an IC50 [2] of 0.21 µM and an IC50 [3, 6] of 0.0078 µM. For the same molecule, the IC50 [4] was greater than 100 µM, the “Factor* (Resistance Factor = Ratio of dCK- on Wild-type CCRF-CEM)” value [4] was greater than 10638 and the IC50 [5] was 0.0094 µM.
With `COC(OC)(OC[C@H]1OC[C@@H](n2ccc(N)nc2=O)O1)c1ccc(C)cc1` [Compound 200, 4-AMINO-1-[2- (DIMETHOXY-#P!-TOLYL- METHOXYMETHYL)- [1,3]DIOXOLAN-4-YL]- 1#H!-PYRIMIDIN-2-ONE] the IC50 [1] was 0.3 µM, the IC50 [2] was 1.1 µM and the IC50 [3, 6] was 0.12 µM. For the same molecule, the IC50 [4] was 72 µM, the “Factor* (Resistance Factor = Ratio of dCK- on Wild-type CCRF-CEM)” value [4] was 232 and the IC50 [5] was 0.31 µM.
Work on `CCOC(=O)/C=C/OC[C@H]1OC[C@@H](n2ccc(N)nc2=O)O1` [Compound 201, 3-[4-(4-AMINO-2-OXO-2H- PYRIMIDIN-1-YL)- [1,3]DIOXOLAN-2-YL METHOXY]-ACRYLIC ACID ETHYL ESTER] yielded an IC50 [1] of 17 µM, an IC50 [2] of 18 µM and an IC50 [3, 6] of 7.3 µM. For the same molecule, the IC50 [4] was greater than 100 µM, the “Factor* (Resistance Factor = Ratio of dCK- on Wild-type CCRF-CEM)” value [4] was greater than 7 and the IC50 [5] was 14 µM.
Molecule `Nc1ccn([C@@H]2CO[C@H](COC(=S)Sc3ccccc3)O2)c(=O)n1` [Compound 205, DITHIOCARBONIC ACID O- [4-(4-AMINO-2-OXO-2H- PYRIMIDIN-1-YL)- [1,3]DIOXOLAN-2-YL METHYL] ESTER S-PHENYL ESTER] has an IC50 [1] of 0.28 µM, an IC50 [2] of 0.9 µM and an IC50 [3, 6] of 0.1 µM. For the same molecule, the IC50 [4] was greater than 100 µM, the “Factor* (Resistance Factor = Ratio of dCK- on Wild-type CCRF-CEM)” value [4] was greater than 385 and the IC50 [5] was 0.26 µM.
With `Nc1ccn([C@@H]2CO[C@H](COC(=O)c3ccccc3Cl)O2)c(=O)n1` [Compound 206, 2-CHLORO-BENZOIC ACID 4-(4-AMINO-2-OXO-2#H!- PYRIMIDIN-1-YL)- [1,3]DIOXOLAN-2-YL METHYL ESTER] the IC50 [1] was 0.012 µM, the IC50 [2] was 0.056 µM and the IC50 [3, 6] was 0.043 µM. For the same molecule, the IC50 [4] was 80 µM, the “Factor* (Resistance Factor = Ratio of dCK- on Wild-type CCRF-CEM)” value [4] was 8,889 and the IC50 [5] was 0.009 µM.
